From patent publication EP3290412A1, “HIV-1 NUCLEOCAPSID INHIBITORS” (Università degli Studi di Siena, priority 2016, dated 2018)

Key:
[1] = system: Peripheral blood mononuclear cells (PBMC); format: cell-based; conditions: human, 7 days
Method in brief: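 Healthy-donor PBMC stimulated 2 days with 5 µg/mL PHA, then seeded at 1x10^5 cells/well in medium with 20 IU/mL IL-2 and exposed to compound for 7 days. Viability measured by MTS (4 h, OD 490 nm). TD50 interpolated from dose versus percent mortality relative to untreated cells.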

HeLa cells = assay: HeLa Proliferation assay (CellTiter Glo); format: cell-based; conditions: 72 hours
Method in brief: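 HeLa cells in phenol red-free DMEM + 10% FBS plated at 2000 cells/well, recovered 4 h, then exposed to compounds for 72 h at 37 °C, 5% CO2. Viability read by CellTiter Glo luminescence.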

C[C@H](NC(=O)c1nc(-c2cc(Cl)ccn2)nc(O)c1O)C1CCCCC1 [Compound 78, (S)-2-(4-chloropyridin-2-yl)-N-(1-cyclohexylethyl)-5,6-dihydroxypyrimidine-4-carboxamide]
Proliferation assay PBMC TD50 [1]: 1900 nM | Proliferation assay HELA TD50 (HeLa cells): 2357.6 nM

CC1CCCCC1NC(=O)c1nc(-c2ccccn2)nc(O)c1O (stereo not shown) [Compound 59, 5,6-dihydroxy-N-(2-methylcyclohexyl)-2-(pyridin-2-yl)pyrimidine-4-carboxamide]
Proliferation assay PBMC TD50 [1]: 2180 nM | Proliferation assay HELA TD50 (HeLa cells): 694.6 nM

Cc1ccnc(-c2nc(O)c(O)c(C(=O)N[C@H](C)C3CCCCC3)n2)c1 [Compound 19, (R)-N-(1-cyclohexylethyl)-5,6-dihydroxy-2-(4-methylpyridin-2-yl)pyrimidine-4-carboxamide]
Proliferation assay PBMC TD50 [1]: 3075 nM | Proliferation assay HELA TD50 (HeLa cells): 2735.7 nM

Cc1cccnc1-c1nc(O)c(O)c(C(=O)OCC2CCCCC2)n1 [Compound 10, cyclohexylmethyl 5,6-dihydroxy-2-(3-methylpyridin-2-yl)pyrimidine-4-carboxylate]
Proliferation assay PBMC TD50 [1]: 8100 nM | Proliferation assay HELA TD50 (HeLa cells): >50000 nM

O=C(NCC1CCCCC1)c1nc(-c2ccccn2)nc(O)c1O [Compound 1, N-(cyclohexylmethyl)-5,6-dihydroxy-2-(pyridin-2-yl)pyrimidine-4-carboxamide]
Proliferation assay PBMC TD50 [1]: 2600 nM | Proliferation assay HELA TD50 (HeLa cells): 3585.7 nM

O=C(OCC1CCCCC1)c1nc(-c2ccccn2)nc(O)c1O [Compound 2, cyclohexylmethyl 5,6-dihydroxy-2-(pyridin-2-yl)pyrimidine-4-carboxylate]
Proliferation assay PBMC TD50 [1]: 6000 nM | Proliferation assay HELA TD50 (HeLa cells): >50000 nM

Cc1cccnc1-c1nc(O)c(O)c(C(=O)NCC2CCCCC2)n1 [Compound 11, N-(cyclohexylmethyl)-5,6-dihydroxy-2-(3-methylpyridin-2-yl)pyrimidine-4-carboxamide]
Proliferation assay PBMC TD50 [1]: 8700 nM | Proliferation assay HELA TD50 (HeLa cells): 8283.9 nM

C[C@@H](NC(=O)c1nc(-c2ccc(CNCc3ccccc3)cn2)nc(O)c1O)C1CCCCC1 [Compound 53, (R)-2-(5-((benzylamino)methyl)pyridin-2-yl)-N-(1-cyclohexylethyl)-5,6-dihydroxypyrimidine-4-carboxamide]
Proliferation assay PBMC TD50 [1]: 790 nM | Proliferation assay HELA TD50 (HeLa cells): 2876.3 nM

C[C@@H](NC(=O)c1nc(-c2cc(OCc3ccccc3)ccn2)nc(O)c1O)C1CCCCC1 [Compound 35, (R)-2-(4-(benzyloxy)pyridin-2-yl)-N-(1-cyclohexylethyl)-5,6-dihydroxypyrimidine-4-carboxamide]
Proliferation assay PBMC TD50 [1]: 670 nM | Proliferation assay HELA TD50 (HeLa cells): 4589.6 nM

O=C(NCC1CC1)c1nc(-c2ccccn2)nc(O)c1O [Compound 3, N-(cyclopropylmethyl)-5,6-dihydroxy-2-(pyridin-2-yl)pyrimidine-4-carboxamide]
Proliferation assay PBMC TD50 [1]: 6000 nM | Proliferation assay HELA TD50 (HeLa cells): >50000 nM

C[C@@H](NC(=O)c1nc(-c2cc(CCN)ccn2)nc(O)c1O)C1CCCCC1 [Compound 88, (R)-2-(4-(2-aminoethyl)pyridin-2-yl)-N-(1-cyclohexylethyl)-5,6-dihydroxypyrimidine-4-carboxamide]
Proliferation assay PBMC TD50 [1]: 3250 nM | Proliferation assay HELA TD50 (HeLa cells): 7133.8 nM

COc1ccnc(-c2nc(O)c(O)c(C(=O)N[C@@H](C)C3CCCCC3)n2)c1 [Compound 69, N-[(1S)-1-cyclohexylethyl]-2-(4-methoxypyridin-2-yl)-5,6-bis(oxidanyl)pyrimidine-4-carboxamide]
Proliferation assay PBMC TD50 [1]: 7110 nM | Proliferation assay HELA TD50 (HeLa cells): 3899.9 nM

O=C(OCC1CCCCC1)c1nc(-c2ncccc2Cl)nc(O)c1O [Compound 15, cyclohexylmethyl 2-(3-chloropyridin-2-yl)-5,6-dihydroxypyrimidine-4-carboxylate]
Proliferation assay PBMC TD50 [1]: 25000 nM | Proliferation assay HELA TD50 (HeLa cells): >50000 nM

C[C@@H](NC(=O)c1nc(-c2ccc3ccccc3n2)nc(O)c1O)C1CCCCC1 [Compound 22, (R)-N-(1-cyclohexylethyl)-5,6-dihydroxy-2-(quinolin-2-yl)pyrimidine-4-carboxamide]
Proliferation assay PBMC TD50 [1]: 8050 nM | Proliferation assay HELA TD50 (HeLa cells): 2844.6 nM

CN1CCCC(CNC(=O)c2nc(-c3ccccn3)nc(O)c2O)C1 (stereo not shown) [Compound 7, 5,6-dihydroxy-N-((1-methylpiperidin-3 - yl)methyl)-2-(pyridin-2-yl)pyrimidine-4-carboxamide]
Proliferation assay PBMC TD50 [1]: >50000 nM | Proliferation assay HELA TD50 (HeLa cells): >50000 nM

C[C@@H](NC(=O)c1nc(-c2cc(CCN(C)C)ccn2)nc(O)c1O)C1CCCCC1 [Compound 92, (R)-N-(1-cyclohexylethyl)-2-(4-(2-(dimethylamino)ethyl)pyridin-2-yl)-5,6-dihydroxypyrimidine-4-carboxamide]
Proliferation assay PBMC TD50 [1]: 2020 nM | Proliferation assay HELA TD50 (HeLa cells): 1168.4 nM

CC(NC(=O)c1nc(-c2ccccn2)nc(O)c1O)C1CCCC1 (stereo not shown) [Compound 65, N-(1-cyclopentylethyl)-5,6-dihydroxy-2-(pyridin-2-yl)pyrimidine-4-carboxamide]
Proliferation assay PBMC TD50 [1]: 3100 nM | Proliferation assay HELA TD50 (HeLa cells): 883.9 nM

C[C@@H](NC(=O)c1nc(-c2ccc(C(N)=O)cn2)nc(O)c1O)C1CCCCC1 [Compound 51, (R)-2-(5-carbamoylpyridin-2-yl)-N-(1-cyclohexylethyl)-5,6-dihydroxypyrimidine-4-carboxamide]
Proliferation assay PBMC TD50 [1]: 8000 nM | Proliferation assay HELA TD50 (HeLa cells): 26976 nM

CC(C)(CNC(=O)c1nc(-c2ccccn2)nc(O)c1O)C1CCCC1 [Compound 63, N-(2-cyclopentyl-2-methylpropyl)-5,6-dihydroxy-2-(pyridin-2-yl)pyrimidine-4-carboxamide]
Proliferation assay PBMC TD50 [1]: 2100 nM | Proliferation assay HELA TD50 (HeLa cells): 398.6 nM

C[C@@H](NC(=O)c1nc(-c2cc3ccccc3cn2)nc(O)c1O)C1CCCCC1 [Compound 25, (R)-N-(1-cyclohexylethyl)-5,6-dihydroxy-2-(isoquinolin-3-yl)pyrimidine-4-carboxamide]
Proliferation assay PBMC TD50 [1]: 1750 nM | Proliferation assay HELA TD50 (HeLa cells): 1393.4 nM

CC1CCCC(NC(=O)c2nc(-c3ccccn3)nc(O)c2O)C1 (stereo not shown) [Compound 57, 5,6-dihydroxy-N-(3-methylcyclohexyl)-2-(pyridin-2-yl)pyrimidine-4-carboxamide]
Proliferation assay PBMC TD50 [1]: 2700 nM | Proliferation assay HELA TD50 (HeLa cells): 1909.4 nM

O=C(NCCC1CCCCC1)c1nc(-c2ccccn2)nc(O)c1O [Compound 6, N-(2-cyclohexylethyl)-5,6-dihydroxy-2-(pyridin-2-yl)pyrimidine-4-carboxamide]
Proliferation assay PBMC TD50 [1]: 10480 nM | Proliferation assay HELA TD50 (HeLa cells): 4236.2 nM

C[C@H](NC(=O)c1nc(-c2nccc3ccccc23)nc(O)c1O)C1CCCCC1 [Compound 80, (S)-N-(1-cyclohexylethyl)-5,6-dihydroxy-2-(isoquinolin-1-yl)pyrimidine-4-carboxamide]
Proliferation assay PBMC TD50 [1]: 2000 nM | Proliferation assay HELA TD50 (HeLa cells): 1611.2 nM

C[C@@H](NC(=O)c1nc(-c2cc(N)ccn2)nc(O)c1O)C1CCCCC1 [Compound 48, (R)-2-(4-aminopyridin-2-yl)-N-(1-cyclohexylethyl)-5,6-dihydroxypyrimidine-4-carboxamide]
Proliferation assay PBMC TD50 [1]: 2600 nM | Proliferation assay HELA TD50 (HeLa cells): 1549.6 nM

COc1ccc(-c2nc(O)c(O)c(C(=O)N[C@H](C)C3CCCCC3)n2)nc1 [Compound 32, (R)-N-(1-cyclohexylethyl)-5,6-dihydroxy-2-(5-methoxypyridin-2-yl)pyrimidine-4-carboxamide]
Proliferation assay PBMC TD50 [1]: 3000 nM | Proliferation assay HELA TD50 (HeLa cells): 935.6 nM

CC(=O)Nc1ccc(-c2nc(O)c(O)c(C(=O)N[C@H](C)C3CCCCC3)n2)nc1 [Compound 62, (R)-2-(5-acetamidopyridin-2-yl)-N-(1-cyclohexylethyl)-5,6-dihydroxypyrimidine-4-carboxamide]
Proliferation assay PBMC TD50 [1]: 1870 nM | Proliferation assay HELA TD50 (HeLa cells): 4551.9 nM

C[C@H](NC(=O)c1nc(-c2ccc(N)cn2)nc(O)c1O)C1CCCCC1 [Compound 81, (S)-2-(5-aminopyridin-2-yl)-N-(1-cyclohexylethyl)-5,6-dihydroxypyrimidine-4-carboxamide]
Proliferation assay PBMC TD50 [1]: 1400 nM | Proliferation assay HELA TD50 (HeLa cells): 542.5 nM

C[C@@H](NC(=O)c1nc(-c2ccc(N)cn2)nc(O)c1O)C1CCCCC1 [Compound 20, (R)-2-(5-aminopyridin-2-yl)-N-(1-cyclohexylethyl)-5,6-dihydroxypyrimidine-4-carboxamide]
Proliferation assay PBMC TD50 [1]: 1650 nM | Proliferation assay HELA TD50 (HeLa cells): 686.4 nM

C[C@@H](NC(=O)c1nc(-c2cc(Cl)ccn2)nc(O)c1O)C1CCCCC1 [Compound 26, (R)-2-(4-chloropyridin-2-yl)-N-(1-cyclohexylethyl)-5,6-dihydroxypyrimidine-4-carboxamide]
Proliferation assay PBMC TD50 [1]: 2490 nM | Proliferation assay HELA TD50 (HeLa cells): 3197.7 nM
